Assay results reported in BindingDB's records for doi:10.1016/S0960-894X(97)00311-9 (n/a, 1997).

Assay: Inhibition of human platelet aggregation

## CC(C)[C@H](NC(=O)[C@H](CC(=O)O)NC(=O)CCNC(=O)C=Cc1ccc(N=C(N)N)cc1)C(=O)O [(S)-2-((S)-3-Carboxy-2-{3-[(E)-3-(4-guanidino-phenyl)-acryloylamino]-propionylamino}-propionylamino)-3-methyl-butyric acid]
  IC50: 2000 nM

## CC(C)[C@H](NC(=O)[C@H](CC(=O)O)NC(=O)C[C@@H]1CCCN1C(=O)C=Cc1ccc(N=C(N)N)cc1)C(=O)O [(S)-2-[(S)-3-Carboxy-2-(2-{(S)-1-[(E)-3-(4-guanidino-phenyl)-acryloyl]-pyrrolidin-2-yl}-acetylamino)-propionylamino]-3-methyl-butyric acid]
  IC50: 96 nM

## CC(C)[C@H](NC(=O)[C@H](CC(=O)O)NC(=O)C[C@H]1CCCN1C(=O)C=Cc1ccc(N=C(N)N)cc1)C(=O)O [(S)-2-[(S)-3-Carboxy-2-(2-{(R)-1-[(E)-3-(4-guanidino-phenyl)-acryloyl]-pyrrolidin-2-yl}-acetylamino)-propionylamino]-3-methyl-butyric acid]
  IC50: 25000 nM

## CC(C)[C@H](NC(=O)[C@H](CC(=O)O)NC(=O)CNC(=O)C=Cc1ccc(N=C(N)N)cc1)C(=O)O [(S)-2-((S)-3-Carboxy-2-{2-[(E)-3-(4-guanidino-phenyl)-acryloylamino]-acetylamino}-propionylamino)-3-methyl-butyric acid]
  IC50: 6600 nM

## CC(C)[C@H](NC(=O)[C@H](CC(=O)O)NC(=O)CCN(C)C(=O)C=Cc1ccc(N=C(N)N)cc1)C(=O)O [(S)-2-[(S)-3-Carboxy-2-(3-{[(E)-3-(4-guanidino-phenyl)-acryloyl]-methyl-amino}-propionylamino)-propionylamino]-3-methyl-butyric acid]
  IC50: 500 nM

## CC(C)[C@H](NC(=O)[C@H](CC(=O)O)NC(=O)[C@@H]1CCN(C(=O)C=Cc2ccc(N=C(N)N)cc2)C1)C(=O)O [(S)-2-[(S)-3-Carboxy-2-({(R)-1-[(E)-3-(4-guanidino-phenyl)-acryloyl]-pyrrolidine-3-carbonyl}-amino)-propionylamino]-3-methyl-butyric acid]
  IC50: 65 nM

## CC(C)[C@H](NC(=O)[C@H](CC(=O)O)NC(=O)[C@H]1CCCN(C(=O)C=Cc2ccc(N=C(N)N)cc2)C1)C(=O)O [(S)-2-[(S)-3-Carboxy-2-({(S)-1-[(E)-3-(4-guanidino-phenyl)-acryloyl]-piperidine-3-carbonyl}-amino)-propionylamino]-3-methyl-butyric acid]
  IC50: 620 nM

## CC(C)[C@H](NC(=O)[C@H](CC(=O)O)NC(=O)[C@@H]1CCCN(C(=O)C=Cc2ccc(N=C(N)N)cc2)C1)C(=O)O [(S)-2-[(S)-3-Carboxy-2-({(R)-1-[(E)-3-(4-guanidino-phenyl)-acryloyl]-piperidine-3-carbonyl}-amino)-propionylamino]-3-methyl-butyric acid]
  IC50: 180 nM

## CC(C)[C@H](NC(=O)[C@H](CC(=O)O)NC(=O)[C@H]1CCN(C(=O)C=Cc2ccc(N=C(N)N)cc2)C1)C(=O)O [(S)-2-[(S)-3-Carboxy-2-({(S)-1-[(E)-3-(4-guanidino-phenyl)-acryloyl]-pyrrolidine-3-carbonyl}-amino)-propionylamino]-3-methyl-butyric acid]
  IC50: 3300 nM

## CCN(CCC(=O)N[C@@H](CC(=O)O)C(=O)N[C@H](C(=O)O)C(C)C)C(=O)C=Cc1ccc(N=C(N)N)cc1 [(S)-2-[(S)-3-Carboxy-2-(3-{ethyl-[(E)-3-(4-guanidino-phenyl)-acryloyl]-amino}-propionylamino)-propionylamino]-3-methyl-butyric acid]
  IC50: 410 nM

## CC(C)[C@H](NC(=O)[C@H](CC(=O)O)NC(=O)C[C@@H]1CCCCN1C(=O)C=Cc1ccc(N=C(N)N)cc1)C(=O)O [(S)-2-[(S)-3-Carboxy-2-(2-{(S)-1-[(E)-3-(4-guanidino-phenyl)-acryloyl]-piperidin-2-yl}-acetylamino)-propionylamino]-3-methyl-butyric acid]
  IC50: 1600 nM
